The results in this text go back to article PMC8637573, “EWS–FLI1‐targeting peptide identifies Ewing sarcoma tumor boundaries and lymph node metastasis via near‐infrared imaging” (Molecular Oncology, 2021).

Assay [1] concerns the target T1, E/F in A673 cells (Homo sapiens, UniProt Q01543+Q01844).
T1 construct: endogenous in cells; host or cells: A673 cells (fixed and permeabilised in A8, living in A10)
T1 sequence (Q01844+Q01543 with tags, fused parts or gaps): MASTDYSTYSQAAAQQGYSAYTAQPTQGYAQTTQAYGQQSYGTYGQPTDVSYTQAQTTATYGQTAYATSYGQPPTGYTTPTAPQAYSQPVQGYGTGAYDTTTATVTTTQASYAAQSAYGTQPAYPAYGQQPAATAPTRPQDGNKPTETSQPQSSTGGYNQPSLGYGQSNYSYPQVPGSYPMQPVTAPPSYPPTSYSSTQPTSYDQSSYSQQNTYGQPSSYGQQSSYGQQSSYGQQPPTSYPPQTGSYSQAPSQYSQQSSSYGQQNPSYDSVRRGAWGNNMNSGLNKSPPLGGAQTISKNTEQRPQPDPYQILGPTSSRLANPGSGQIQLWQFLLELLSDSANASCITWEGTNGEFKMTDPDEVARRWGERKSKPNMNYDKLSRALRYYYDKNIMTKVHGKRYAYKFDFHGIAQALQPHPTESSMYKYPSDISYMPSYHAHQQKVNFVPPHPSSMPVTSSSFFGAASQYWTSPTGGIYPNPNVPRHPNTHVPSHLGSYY
Put plainly: Binding affinity test (competition of E9R with CS2‐N‐E9R). The note with it: E9R 4 × 10^−3 M to 4 × 10^−9 M incubated 1 h, washed, then 4 μM CS2‐N‐E9R 40 min, Odyssey Infrared Imager, average of quadruple wells, read-out: IC50 for the inhibition of CS2‐N‐E9R binding E/F. As to the method:
As to the binding affinity test, serial concentrations of E9R (from 4 × 10^−3 M to 4 × 10^−9 M) were prepared as competitors for CS2‐N‐E9R. A673 cells were seeded into 96‐well Black Polystyrene Assay plate at a concentration of 4 × 10^3 cells per well with 150 μL medium containing 10% FBS at incubator for 24 h. Different concentrations of E9R were added into palate and incubated for 1 h, and then washed three times with PBS (pH 7.4). 4 μM of CS2‐N‐E9R was then added into each well and incubated for another 40 min. After that the samples were washed and imaged with Odyssey® Infrared Imager. Each data point represents the average value of quadruple wells. Data were analyzed using GRAPHPAD PRISM (GraphPad Software, San Diego, CA, USA). IC50 values, which were defined as the concentration of competitive agent required to inhibit 50% of CS2‐N‐E9R binding, were calculated.

The subject of assay [2] is A673 cells. Put plainly: Living cell fluorescence imaging. The format is cell-based, human. Conditions: A673 cells pre‐incubated with 50 μM E9R for 1 h, then 10 μM CS2‐N‐E9R. Here is the method:
E/F‐positive ES cells (A673) and E/F‐negative sarcoma cells (143B) were then seeded into confocal culture dishes at a density of 2 × 10^5 cells each dish in 1.5‐mL medium containing 10% FBS. After 24 h of cell attachment, the dishes were then washed three times with 1 mL PBS. The dishes were then cultured in medium with 10 μM probe CS2‐N‐E9R. The intracellular probe aggregations were then observed by Leica‐LCS‐SP8‐STED confocal microscope (Leica, Wetzlar, Germany).
E/F‐positive ES cells (A673 cells, RD‐ES cells) and E/F‐negative osteosarcoma cells (143B cells), hepatoma carcinoma cells (Hep3B cells), and […] embryonic human kidney cells (293T cells) were seeded into confocal culture dishes. All the dishes were incubated with 10 μM CS2‐N‐E9R for 1 h and washed three times with PBS buffer before imaging, except for the control and blocking groups. For the control group, A673 cells were incubated with 10 μM control probe CS2‐N‐E. For the blocking group, A673 cells were pre‐incubated with 50 μM peptide E9R as a blocking agent for 1 h, after that incubated with 10 μM probe CS2‐N‐E9R.

Residues, ends and D or L forms follow the SMILES beside them.

Take `CC[C@H](C)[C@H](NC(=O)[C@@H](NC(=O)[C@H](C)NC(=O)[C@H](CC(=O)O)NC(=O)[C@H](CC(C)C)NC(=O)[C@@H]1CCCN1C(=O)[C@@H]1CCCN1C(=O)[C@@H]1CCCN1)C(C)C)C(=O)N[C@@H](CCC(=O)O)C(=O)N[C@@H](C)C(=O)O` [E9R] (H-PPPLDAVIEA-OH; N-terminus assumed): in assay [1], the IC50 was found to be 3.69 µM. Further, in assay [2], the “fluorescence of CS2‐N‐E9R after pretreatment with blocking agent” value is “fluorescence muted”.
